The results in this text go back to BindingDB's records for doi:10.1002/cbic.201402321 (The University of Texas At Austin, 2014).

The structures appear in SMILES notation.

In this test the target is T1, Eukaryotic elongation factor 2 kinase (Homo sapiens, UniProt O00418).
T1 sequence (O00418 whole entry): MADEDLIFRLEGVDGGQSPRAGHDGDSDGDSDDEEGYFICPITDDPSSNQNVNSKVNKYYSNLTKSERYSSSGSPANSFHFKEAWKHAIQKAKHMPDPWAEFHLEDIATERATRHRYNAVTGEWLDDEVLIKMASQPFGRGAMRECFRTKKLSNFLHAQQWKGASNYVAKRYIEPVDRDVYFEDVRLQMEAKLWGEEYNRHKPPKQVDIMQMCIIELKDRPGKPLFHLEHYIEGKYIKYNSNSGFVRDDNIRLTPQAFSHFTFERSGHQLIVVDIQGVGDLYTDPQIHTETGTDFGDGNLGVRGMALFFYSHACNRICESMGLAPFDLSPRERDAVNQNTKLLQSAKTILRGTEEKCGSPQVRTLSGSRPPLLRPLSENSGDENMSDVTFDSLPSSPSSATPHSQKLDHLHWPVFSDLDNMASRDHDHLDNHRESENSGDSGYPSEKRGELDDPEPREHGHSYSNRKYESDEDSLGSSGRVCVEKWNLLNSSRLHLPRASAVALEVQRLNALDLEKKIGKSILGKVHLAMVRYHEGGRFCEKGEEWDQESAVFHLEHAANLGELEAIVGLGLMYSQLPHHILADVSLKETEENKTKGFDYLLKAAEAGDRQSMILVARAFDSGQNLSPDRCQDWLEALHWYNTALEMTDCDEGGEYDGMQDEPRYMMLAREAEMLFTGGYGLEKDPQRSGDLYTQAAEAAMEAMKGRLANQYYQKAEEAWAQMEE
The experiment in a line: Kinase assay. How it is done: WT eEF-2K (2 nM) was preincubated with various concentrations of inhibitors (0-1000 uM) in assay buffer containing CaCl2 (150 uM), calmodulin (1 uM), triton X-100 (0.01%), and peptide substrate (50 uM) for 60 min. The reactions were started by addition of [gamma-P32]-ATP (100 uM, specific activity = 1000 cpm/pmol).

`N#CC1C(=O)NC(=O)C(C#N)C1c1ccc(Cl)c(Cl)c1` (stereo unspecified) [4-(3,4-dichlorophenyl)-2,6-dioxopiperidine-3,5-dicarbonitrile (2)] came in with an IC50 of 30 µM. Consider `Cc1ccc(C2C(C#N)C(=O)NC(=O)C2C#N)cc1` (stereo unspecified) [4‐(4‐methylphenyl)‐2,6‐dioxopiperidine‐3,5‐ dicarbonitrile (3)], for which 46 µM corresponded to half-maximal inhibition (IC50). Against the preceding molecule, the IC50 is about 1.5-fold higher. In the case of `COc1cccc(C2C(C#N)C(=O)NC(=O)C2C#N)c1` (stereo unspecified) [4-(3-methoxyphenyl)-2,6-dioxo-3,5-piperidinedicarbonitrile (MDP)], inhibition was half-maximal at 25 µM (IC50). The molecule `Cc1ccccc1C1C(C#N)C(=O)NC(=O)C1C#N` (stereo unspecified) [4‐(2‐methylphenyl)‐2,6‐dioxopiperidine‐3,5‐ dicarbonitrile (1)] displayed an IC50 of 33 µM.

`N#CC1C(=O)NC(=O)C(C#N)C1c1c(Cl)cccc1Cl` (stereo unspecified) [4‐(2,6‐dichlorophenyl)‐2,6‐dioxopiperidine‐3,5‐ dicarbonitrile (5)] gave an IC50 of 57 µM.

As for `N#CC1C(=O)NC(=O)C(C#N)C1c1cccc(O)c1` (stereo unspecified) [4‐(3‐hydroxyphenyl)‐2,6‐dioxopiperidine‐3,5‐ dicarbonitrile (4)], inhibition was half-maximal at 66 µM (IC50).
